Source: article PMC10923852, “Gustavson syndrome is caused by an in-frame deletion in RBMX associated with potentially disturbed SH3 domain interactions” (European Journal of Human Genetics, 2023)
Blank lines part the entries; values can stand above or below the molecule they belong to. Where a SMILES comes first, the peptide text is derived from it. Where no end group is shown, it is not given here.

Key:
BIN1-SH3 [1] = molecular target: T1, BIN1-SH3 (Homo sapiens, UniProt O00499); assay: Fluorescence polarization saturation binding, BIN1-SH3 domain with FITC-labeled hnRNP G peptide; conditions: FITC-labeled peptide 10 nM
T1 construct: GST (cleaved yes); Genecast (peptides); host or cells: E. coli BL21-DE3 GOLD
T1 sequence (O00499 520-593 limits assumed): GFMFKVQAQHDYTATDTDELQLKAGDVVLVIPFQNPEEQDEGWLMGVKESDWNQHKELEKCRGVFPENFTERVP
Protocol: (§1) To further investigate if the tri-proline region spanning the variant had the capacity to interact with SH3 domains, a fluorescence polarization assay with hnRNP G peptides and SH3 domains were performed. Wildtype and mutant (△P162) hnRNP G peptides of different lengths spanning the region of interest (P38159) were ordered from Genecast (Supplementary material 2) with or without Fluorescein isothiocyanate (FITC)-label (purity >95%, dissolved in 50 mM potassium phosphate pH 7.5). Two SH3 domains were expressed and purified: ASAP1-SH3 (Addgene: 91501), BIN1-SH3 (GenScript) according to standard protocol (Supplementary material 2). […]
(§2) To determine the affinity between BIN-SH3 domain and the non-labeled hnRNP G peptides, displacement experiments were performed where the fixed concentration of FITC-labeled peptide and protein was mixed with an increasing concentration of displacer non-labeled peptide. […] All results were analyzed with GraphPad Prism to determine the dissociation constant for labeled peptide and the IC50 values, and Microsoft Excel was used to calculate KD from IC50. All fluorescence polarization experiments were performed in 50 mM potassium phosphate pH 7.5, containing 1 mM tris(2-carboxyethyl)phosphine (TCEP). […]

ASAP1-SH3 [2] = molecular target: T2, ASAP1-SH3 (Homo sapiens, UniProt Q9ULH1); assay: Fluorescence polarization saturation binding, ASAP1-SH3 domain with FITC-labeled hnRNP G peptide; conditions: FITC-labeled peptide 10 nM
T2 construct: Two SH3 domains were expressed and purified: ASAP1-SH3 (Addgene: 91501), BIN1-SH3 (GenScript); GST (cleaved yes); host or cells: E. coli BL21-DE3 GOLD
T2 sequence (Q9ULH1 1067-1129 limits assumed): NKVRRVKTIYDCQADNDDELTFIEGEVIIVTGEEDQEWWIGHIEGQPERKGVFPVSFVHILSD
Protocol: as §1, §2

BIN1-SH3 [3] = molecular target: T1, BIN1-SH3; assay: Fluorescence polarization displacement, BIN1-SH3 domain with non-labeled hnRNP G peptides; format: binding; conditions: for binding affinity for BIN1-SH3 (in words): fluorescence polarization, 50 mM potassium phosphate pH 7.5, 1 mM TCEP
Protocol: (§3) To further investigate if the tri-proline region spanning the variant had the capacity to interact with SH3 domains, a fluorescence polarization assay with hnRNP G peptides and SH3 domains were performed. Wildtype and mutant (△P162) hnRNP G peptides of different lengths spanning the region of interest (P38159) were ordered from Genecast (Supplementary material 2) with or without Fluorescein isothiocyanate (FITC)-label (purity >95%, dissolved in 50 mM potassium phosphate pH 7.5). Two SH3 domains were expressed and purified: ASAP1-SH3 (Addgene: 91501), BIN1-SH3 (GenScript) according to standard protocol (Supplementary material 2).
(§4) To determine the affinity between BIN-SH3 domain and the non-labeled hnRNP G peptides, displacement experiments were performed where the fixed concentration of FITC-labeled peptide and protein was mixed with an increasing concentration of displacer non-labeled peptide. The mP signal was investigated to determine the IC50 values, which were then converted to dissociation constants as previously described. All results were analyzed with GraphPad Prism to determine the dissociation constant for labeled peptide and the IC50 values, and Microsoft Excel was used to calculate KD from IC50. All fluorescence polarization experiments were performed in 50 mM potassium phosphate pH 7.5, containing 1 mM tris(2-carboxyethyl)phosphine (TCEP).
SH3 domains were expressed by transforming expression constructs into E. coli (BL21-DE3 GOLD) and grown in LB media with 50 µg/ml ampicillin (ASAP1) or 50 µg/ml kanamycin (BIN1) at 37°C until reaching an OD600 of 0.6. Protein expression was induced with 1mM isopropyl-β-thiogalactopyranoside and the protein expression proceeded overnight at 18 °C. Cells were harvested and resuspended in lysis buffer (50 mM Tris/HCl pH 7.8, 10 µg/mL DNase I and RNase A (Hoffman-La Roche, Switzerland), 300 mM NaCl, 4 mM MgCl2, 2 mM CaCl2 and cOmplete EDTA-free Protease Inhibitor Cocktail (Hoffman-La Roche)) and lysed by sonication. Cell lysate was clarified by centrifugation at 20,000 g for 40 min, filtered and transferred to Glutathione Sepharose 4 Fast Flow media (GE Healthcare). After 30-minute incubation, glutathione media was washed with wash buffer (50 mM Tris/HCl pH 7.8 300 mM NaCl, 4 mM DTT), eluted with elution buffer (50 mM Tris/HCl pH 7.8 300 mM NaCl, 4 mM DTT, 10 mM reduced glutathione), and the GST-tag was cleaved overnight with PreScission protease (BIN1) or Thrombin (ASAP1). Next day the cleaved protein was applied to a […] to remove the tag, and pure protein was dialyzed into 50 mM potassium phosphate buffer pH 7.4, and concentrated using the Amicon ultra 15ml centrifugal filters (3kDa cutoff, Merck Millipore, UFC900308). Purity of the sample was analyzed by SDS-PAGE and its identity confirmed by MALDI-TOF mass spectrometry. The sample was then frozen until fluorescence polarization experiments were performed.

ASAP1-SH3 [4] = molecular target: T2, ASAP1-SH3; assay: Fluorescence polarization displacement, ASAP1-SH3 domain; format: binding
Protocol: as §3
as §4, with “(TCEP). […]” for “(TCEP).”

BIN1 SH3 [5] = molecular target: T3, BIN1 SH3 (Homo sapiens, UniProt O00499); assay: fluorescence polarization displacement
T3 chain: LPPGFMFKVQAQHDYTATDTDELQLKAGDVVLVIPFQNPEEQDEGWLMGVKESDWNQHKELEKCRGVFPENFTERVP

ASAP1 SH3 = molecular target: T4, ASAP1 SH3 (Homo sapiens, UniProt Q9ULH1); assay: fluorescence polarization saturation
T4 chain: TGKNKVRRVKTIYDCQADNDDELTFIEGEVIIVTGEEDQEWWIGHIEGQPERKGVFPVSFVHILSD

BIN1 SH3 [6] = molecular target: T3, BIN1 SH3; assay: fluorescence polarization saturation

binding to BIN1-SH3 (in words) (BIN1-SH3 [1]): binding with moderate affinities
binding to ASAP1-SH3 (in words) (ASAP1-SH3 [2]): binding with moderate affinities
Molecule: 150-KRGPPPRSGGPPPKRSAPSGPy-170 [hnRNP G aa 150-170, wildtype FITC, FITC-labeled wildtype hnRNP G peptide, residues 150-170]

Molecule: C[C@H](NC(=O)[C@H](CO)NC(=O)[C@H](CCCNC(=N)N)NC(=O)[C@H](CCCCN)NC(=O)[C@@H]1CCCN1C(=O)[C@@H]1CCCN1C(=O)[C@@H]1CCCN1C(=O)CNC(=O)CNC(=O)[C@H](CO)NC(=O)[C@H](CCCNC(=N)N)NC(=O)[C@@H]1CCCN1C(=O)[C@@H]1CCCN1C(=O)CNC(=O)[C@H](CCCNC(=N)N)NC(=O)[C@@H](N)CCCCN)C(=O)N1CCC[C@H]1C(=O)N[C@@H](CO)C(=O)NCC(=O)N1CCC[C@H]1C(=O)N[C@@H](Cc1ccc(O)cc1)C(=O)O [hnRNP G aa 150-170, △P162] (H-KRGPPRSGGPPPKRSAPSGPY-OH; N-terminus and C-terminus assumed)
binding affinity for BIN1-SH3 (in words) (BIN1-SH3 [3]): no clear difference in binding affinity compared to the wildtype peptide
binding affinity for BIN1-SH3 (in words) (BIN1-SH3 [3]; listed as longer hnRNP G peptide, △P162 variant): no clear difference in SH3 binding affinity between the wildtype and the mutant peptide

binding affinity for ASAP1-SH3 (in words) (ASAP1-SH3 [4]): moderate affinities
binding affinity for BIN1-SH3 (in words) (BIN1-SH3 [3]): moderate affinities
binding affinity for BIN1-SH3 (in words) (BIN1-SH3 [3]; listed as shorter hnRNP G peptide (aa 156–169)): weaker but comparable affinity
Molecule: C[C@H](NC(=O)[C@H](CO)NC(=O)[C@H](CCCNC(=N)N)NC(=O)[C@H](CCCCN)NC(=O)[C@@H]1CCCN1C(=O)[C@@H]1CCCN1C(=O)[C@@H]1CCCN1C(=O)CNC(=O)CNC(=O)[C@H](CO)NC(=O)[C@@H](N)CCCNC(=N)N)C(=O)N1CCC[C@H]1C(=O)N[C@@H](CO)C(=O)NCC(=O)N[C@@H](Cc1ccc(O)cc1)C(=O)O [hnRNP G aa 156-169, wildtype] (H-RSGGPPPKRSAPSGY-OH; N-terminus and C-terminus assumed)

binding affinity for BIN1-SH3 (in words) (BIN1-SH3 [3]): reduced binding affinity
affinity for BIN1-SH3 relative to wildtype peptide (fold) (BIN1-SH3 [3]; short peptide aa 156–169 △P162 vs wildtype): threefold weaker affinity
Molecule: C[C@H](NC(=O)[C@H](CO)NC(=O)[C@H](CCCNC(=N)N)NC(=O)[C@H](CCCCN)NC(=O)[C@@H]1CCCN1C(=O)[C@@H]1CCCN1C(=O)CNC(=O)CNC(=O)[C@H](CO)NC(=O)[C@@H](N)CCCNC(=N)N)C(=O)N1CCC[C@H]1C(=O)N[C@@H](CO)C(=O)NCC(=O)N[C@@H](Cc1ccc(O)cc1)C(=O)O [hnRNP G aa 156-169, △P162] (H-RSGGPPKRSAPSGY-OH; N-terminus and C-terminus assumed)

Kd (BIN1 SH3 [5]): 150 µM
Molecule: RSGGPPPKRSAPSG [hnRNP G 156-169]

Kd (ASAP1 SH3): ~400 µM
Kd (BIN1 SH3 [6]): ~400 µM
Molecule: KRGPPPRSGGPPPKRSAPSGP (also: FITC-labeled, site not given here)

Kd (BIN1 SH3 [5]): 40 µM
Molecule: KRGPPPRSGGPPPKRSAPSGP
